Tests used:
[1] = target: T1, GST-tagged recombinant human full-length TTK protein kinase (Homo sapiens, UniProt P33981); experiment: TTK mobility shift microfluidics assay, single-concentration percent inhibition screen; format: biochemical; conditions: 12.5 nM TTK, 10 μM ATP, mean of duplicate ± SD; for inhibition at 40 µM: compound at 40 μM, 1% DMSO; for inhibition at 400 µM: compound at 400 μM (fragment-like, MW < 300 Da)
T1 construct: GST-tagged recombinant human full-length TTK protein kinase; purchased Invitrogen (Life Technologies Ltd., Paisley, U.K.)
T1 sequence (P33981 1-857): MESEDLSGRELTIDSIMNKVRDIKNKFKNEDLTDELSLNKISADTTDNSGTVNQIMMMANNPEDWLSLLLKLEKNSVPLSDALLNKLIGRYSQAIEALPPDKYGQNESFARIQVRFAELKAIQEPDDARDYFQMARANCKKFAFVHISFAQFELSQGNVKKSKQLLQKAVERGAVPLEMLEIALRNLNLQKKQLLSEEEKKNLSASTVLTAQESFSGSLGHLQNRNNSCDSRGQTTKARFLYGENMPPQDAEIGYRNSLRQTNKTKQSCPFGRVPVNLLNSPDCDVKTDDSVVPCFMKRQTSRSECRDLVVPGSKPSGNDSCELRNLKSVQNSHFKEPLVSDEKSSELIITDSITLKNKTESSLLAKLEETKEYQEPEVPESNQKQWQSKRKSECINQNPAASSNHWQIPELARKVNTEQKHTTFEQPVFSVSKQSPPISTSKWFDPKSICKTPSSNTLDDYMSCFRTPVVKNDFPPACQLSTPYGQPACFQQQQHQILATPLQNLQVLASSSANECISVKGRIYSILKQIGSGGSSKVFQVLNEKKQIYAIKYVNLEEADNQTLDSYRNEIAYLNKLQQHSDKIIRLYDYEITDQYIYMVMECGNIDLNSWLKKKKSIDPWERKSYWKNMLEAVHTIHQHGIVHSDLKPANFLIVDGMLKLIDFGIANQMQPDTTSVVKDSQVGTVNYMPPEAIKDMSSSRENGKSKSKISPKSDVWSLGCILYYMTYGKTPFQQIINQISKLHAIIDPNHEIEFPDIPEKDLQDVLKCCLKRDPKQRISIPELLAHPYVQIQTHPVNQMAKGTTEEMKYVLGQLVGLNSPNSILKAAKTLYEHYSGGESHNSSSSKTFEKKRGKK
Protocol: The TTK kinase activity was measured in a mobility shift microfluidics assay with the Caliper LabChip EZReader II (Caliper Life Sciences, Hopkinton, MA, U.S.A.). For the initial percent inhibition compound screen, all compounds were tested at 40 μM, and fragment-like compounds (MW < 300 Da) were also tested at 400 μM. A 2.14 μM stock of GST-tagged recombinant human full-length TTK protein kinase from Invitrogen (Invitrogen, Life Technologies Ltd., Paisley, U.K.) and custom synthesized peptide from Pepceuticals (Pepceuticals Ltd., Enderby, U.K.) with sequence 5-FAM-[…]-amide were used. […] For every 10 mL of stock buffer, one Roche EDTA free complete mini-protease inhibitor cocktail tablet (Roche, Basel, Switzerland) was added. TTK was used at a final concentration of 12.5 nM. The assay plate was sealed and incubated at room temperature for 60 min. The assay was stopped by addition of stop buffer which contained 100 mM HEPES (pH 7.3), 20 mM EDTA, and 0.05% (v/v) Brij-35. The assay plate was then analyzed using the EZReader II. Z′ for compounds at 40 μM was 0.48, and Z′ for compounds at 400 μM was 0.61.

[2] = target: T1, GST-tagged recombinant human full-length TTK protein kinase; experiment: TTK mobility shift microfluidics assay, IC50 determination (3 nM TTK); format: biochemical; conditions: for IC50: 3 nM TTK, 10 μM ATP, duplicate on the same plate; for LE (ligand efficiency): from TTK IC50
[3] = target: T2, TTK kinase domain (residues 519–808) (Homo sapiens, UniProt P33981); experiment: Soaking of apo TTK kinase domain crystals with inhibitor, X-ray crystallography; format: binding; conditions: crystals soaked with 10–50 mM compound for 24 h
T2 construct: TTK kinase domain (residues 519–808); inferred from Ni-NTA purification with imidazole elution; made in house; host or cells: E. coli BL21 AI
T2 sequence (P33981 519-808): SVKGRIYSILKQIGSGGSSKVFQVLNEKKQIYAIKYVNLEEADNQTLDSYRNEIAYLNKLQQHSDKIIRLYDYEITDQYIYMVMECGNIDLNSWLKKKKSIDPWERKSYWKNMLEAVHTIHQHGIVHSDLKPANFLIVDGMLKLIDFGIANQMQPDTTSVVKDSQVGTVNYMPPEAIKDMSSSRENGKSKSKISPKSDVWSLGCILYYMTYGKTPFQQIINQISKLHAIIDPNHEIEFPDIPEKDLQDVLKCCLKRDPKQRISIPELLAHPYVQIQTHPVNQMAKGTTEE
Excerpt: In recognition of the desirability of protein–ligand crystal structures to educate the efficient follow-up of fragment-like hit matter and our wish to determine the mode of binding of hits identified with the scaffold-focused virtual screen, we sought co-crystal structures of confirmed hits with TTK. To this end, apo crystals of TTK kinase domain were soaked in buffer solution containing the respective inhibitor (2–9). X-ray data were collected for all crystals, and the structures were solved using molecular replacement. We successfully obtained co-crystal structures of TTK with fragment-like hit compounds 3, 4, 5, and 7. […] A summary of crystallographic analysis is presented in Table 4, and the binding modes of compounds 3, 4, 5, and 7 are illustrated in Figure 7 with Fo–Fc electron density omit maps surrounding the ligand shown in green wire-mesh contoured at 3σ. In all four structures, the activation loop of TTK is disordered, possibly due to the presence of a PEG molecule bound to Lys553, a residue which would usually coordinate with Glu571 to help stabilize the activation loop (Lys553 is not shown in Figure 7 for clarity).
TTK was purified and crystallized as described previously.[26] Plasmids for expression of TTK were received from Stefan Knapp, Structural Genomics Consortium, Oxford, U.K. TTK kinase domain (residues 519–808) was expressed in E. coli BL21 AI competent cells (Invitrogen, Life Technologies Ltd., Paisley, U.K.). Cells were cultured in LB media containing kanamycin selection antibiotic and induced with 0.5 mM IPTG and 1g/L L-arabinose at an OD280 of 0.7. Cells were then incubated overnight at 18 °C with shaking at 225 rpm. Cells were harvested and resuspended in lysis buffer containing 50 mM HEPES pH 7.5, 500 mM NaCl, 10 mM imidazole, 5% (v/v) glycerol, lysozyme, and 1 Roche EDTA free complete protease inhibitor cocktail tablet (Roche, Basel, Switzerland) per 3 L of buffer. TTK was purified using Ni–NTA nickel affinity resin and washed in buffer containing 30 mM imidazole. TTK was then eluted from the resin with 250 mM imidazole. Eluate was concentrated using a Vivaspin concentrator with a 30 kDa molecular weight cutoff (GE Healthcare, Chalfont St. Giles, U.K.) and further purified on gel filtration column Superdex 200 16/60 (GE Healthcare, Chalfont St. Giles, U.K.) equilibrated in buffer containing 10 mM HEPES pH 7.5, 150 mM NaCl, 5 mM DTT, and 5 mM EDTA. The sample was concentrated to a final concentration of 8.9 mg/mL, snap frozen on dry ice, and stored at −80 °C until required.
Purified TTK was crystallized at 18 °C using the sitting drop vapor diffusion method with drops composed of 2 μL protein (8.9 mg/mL) and 2 μL reservoir solution placed over 200 μL reservoir solution of H2O/PEG300 (30–45% (v/v)) in 48 well plates. […]

SMILES | inhibition at 40 µM [1] | IC50 ([2]; 1% DMSO) | LE (ligand efficiency) [2] | inhibition at 400 µM [1] | binding in ATP binding site of soaked TTK crystals (electron density) [3] | IC50 ([2]; 10% DMSO (asterisk))
COc1ccc(Nc2cc(-c3ccccc3)ncn2)cc1OC [Compound 14] | 68.5 ± 0.71% | 9.9 µM | 0.30 |  |  | 
c1cc2c(cn1)cnc1sccc12 [Compound 7, thieno[2,3-c][2,7]naphthyridine] | 51 ± 1.41% |  | 0.42 | 94.5 ± 2.12% |  | 
COc1ccc(Nc2ncnc3[nH]ncc23)cc1OC [Compound 17] | 69% | 33.3 µM | 0.31 | 67% |  | 
COc1ccc(Nc2ncnc3sc(-c4ccccc4)cc23)cc1OC [Compound 11] | 64 ± 1.41% | 2.1 µM | 0.30 |  |  | 
COc1ccc(Nc2ncnc3c2cnn3C)cc1OC [Compound 16] | 45.5 ± 2.12% | 19.3 µM | 0.31 | 82.5 ± 0.71% |  | 
COc1ccc(Nc2nc(Nc3ccc(OC)c(OC)c3)c3[nH]cnc3n2)cc1OC [Compound 22] | 71.5 ± 2.12% | < 0.025 µM |  |  |  | 
COc1ccc(C(=O)c2oc3cc(NC(C)=O)ccc3c2C)cc1OC [Compound 12] | 68.5 ± 2.12% | 4.2 µM | 0.28 |  |  | 
Nc1nnc2c([nH]c3ccccc32)c1-c1ccccc1 [Compound 2] | 52 ± 1.41% | 53 µM | 0.29 | 56 ± 1.41% | not bound | 
N#Cc1ccccc1NC(=O)Cn1ncc2c1-c1ccccc1OC2 [Compound 10] | 53.5 ± 0.71% |  |  |  |  | 
COc1ccc(Nc2ccc3nnc(C(F)(F)F)n3n2)cc1OC [Compound 21] | 59 ± 2.83% |  | 0.23 |  |  | 90.1 µM
c1ccc(-c2nc3cnccc3[nH]2)nc1 [Compound 6] | 21.5 ± 2.12% | 91.5 µM | 0.37 | 66% | not bound | 
COc1ccc(Nc2ncnc3nc[nH]c23)cc1OC [Compound 18] | 34 ± 2.83% | 40.9 µM | 0.30 | 67 ± 0.41% |  | 
COc1ccc(Nc2cc(Cl)nc(N)n2)cc1OC [Compound 19] | 65.5 ± 0.71% | 56.2 µM | 0.30 | 96.5 ± 0.71% |  | 
COc1ccc(NC(=O)c2nc[nH]n2)cc1OC [Compound 23] | 23 ± 4.24% | > 1000 µM |  | 51 ± 1.41% |  | 
COc1ccc(Nc2nc(N)nc3nc[nH]c23)cc1OC [Compound 13] | 72 ± 1.41% | 7.7 µM | 0.33 | 86 ± 0.41% |  | 
c1ccc2c(c1)[nH]c1cncnc12 [Compound 4, 5H-pyrimido[5,4-b]indole] | 42.5 ± 0.71% |  | 0.44 | 63 ± 2.83% |  | 
COc1ccc2c(c1)[nH]c1c(C)nccc12 [Compound 8, harmine] | 19% | 160 µM | 0.32 | 65 ± 1.41% | not bound | 
COc1ccc(Nc2cc(C)nc3ncnn23)cc1OC [Compound 24] | 52% | > 1000 µM |  | 34.5 ± 0.71% |  | 
c1cc2cnc3sccc3c2cn1 [Compound 3, Thieno[2,3-c][2,6]naphthyridine] | 70% |  | 0.45 | 105.5 ± 0.71% |  | 
COc1ccc(Nc2ccc3nnnn3n2)cc1OC [Compound 20] | 71.5 ± 0.71% |  | 0.28 | 24.5 ± 2.12% |  | 78.6 µM
COc1ccc(Nc2cc(C)nc(SC)n2)cc1OC [Compound 15] | 57.5 ± 2.12% | 19.6 µM | 0.32 | 75.5 ± 0.71% |  | 
c1cc2cnc3ccsc3c2cn1 [Compound 5, thieno[3,2-c][2,6]naphthyridine] | 46 ± 1.41% |  | 0.44 | 65 ± 2.83% |  | 
